Laboratory results taken from ChEMBL document CHEMBL1800045, “Eudistomidins H-K, new β-carboline alkaloids from the Okinawan marine tunicate Eudistoma glaucus” (Bioorg Med Chem Lett, 2011).
Converted amounts (≈) assume the structure as drawn.

Legend:
Type in all cases: functional, cell-based
[1] = test system: L1210; experiment: Cytotoxicity against mouse L1210 cells
[2] = test system: KB; experiment: Cytotoxicity against human KB cells
[3] = test system: P388; experiment: Cytotoxicity against mouse P388 cells

CN[C@H](CSC)c1nccc2c1[nH]c1ccc(O)c(Br)c12 [EUDISTOMIDIN C]
IC50 [1]: 0.36 µg/mL (≈ 0.983 µM)

CN1Cn2c3c(c4ccc(Br)cc42)CCN(C)[C@@H]3[C@@H]1Cc1ccccc1 [EUDISTOMIDIN H]
IC50 [1]: > 10 µg/mL | IC50 [2]: > 10 µg/mL | IC50 [3]: > 10 µg/mL

CN1Cn2c3c(c4cc(Br)ccc42)CCN(C)[C@@H]3[C@@H]1Cc1ccccc1 [EUDISTOMIDIN I]
IC50 [1]: > 10 µg/mL | IC50 [2]: > 10 µg/mL | IC50 [3]: > 10 µg/mL

CN[C@H](C[S+](C)[O-])c1nccc2c1[nH]c1ccc(O)c(Br)c12 (stereo partly drawn) [EUDISTOMIDIN J]
IC50 [1]: 0.047 µg/mL (≈ 0.123 µM) | IC50 [2]: 0.063 µg/mL (≈ 0.165 µM) | IC50 [3]: 0.043 µg/mL (≈ 0.112 µM)

CC(=O)c1nccc2c1[nH]c1ccc(O)c(Br)c12 [EUDISTOMIDIN K]
IC50 [1]: > 10 µg/mL | IC50 [2]: > 10 µg/mL | IC50 [3]: > 10 µg/mL
